“And” between values parts separate entries of the source, which are not always exact repeats. Identical values can stand only once. Counter-ions that a name gives are not always drawn.
Test system: ANGIOTENSIN II (AII) VASOPRESSOR RESPONSE
Assay: AII Challenge: angiotensin II (AII) vasopressor response in conscious rats
Type: in vivo
Design: Response After AII / Change / Average Change: unit not given here
Conditions: 10 mg/kg i.v.; for Response After AII / Change / Control Before AII: individual rat; for Control Before AII: in mmHg (unit assumed); for % Inhibition / Average Change: n = 2
Excerpt: By administering a compound of this invention to a rat, and then challenging with angiotensin II, a blockage of the vasopressor response is realized.
Conscious Male Okamoto-Aoki SHR, 16-20 weeks old, weighing approximately 330 g are purchased from Charles River Labs (Wilmington, Mass.). Conscious rats are restrained in a supine position with elastic tape. The area at the base of the tail is locally anesthetized by subcutaneous infiltration with 2% procaine. The ventral caudal artery and vein are isolated, and a cannula made of polyethylene (PE) 10-20 tubing (fused together by heat) is passed into the lower abdominal aorta and vena cava, respectively. The cannula is secured, heparinized (1,000 I.U./ml), sealed and the wound is closed. The animals are placed in plastic restraining cages in an upright position. The cannula is attached to s Statham P23Db pressure transducer, and pulsatile blood pressure is recorded to 10-15 minutes with a Gould Brush recorder. (Chan et al., (Drug Development Res., 18:75-94, 1989).
Angiotensin II (human sequence, Sigma Chem. Co., St. Louis, Mo.) of 0.05 and 0.1 ug/kg i.v. is injected into all rats (predosing response.). Then a test compound, vehicle or a known angiotensin II antagonist is administered i.v., i.p. or orally to each set of rats. The two doses of angiotensin II are given to each rat again at 30, 60, 90, 120, 180, 240 and 300 minutes post dosing the compound or vehicle. The vasopressor response of angiotensin II by a compound is calculated using the vasopressor response (increase in systolic blood pressure) of angiotensin II of each rat predosing the compound as 100%. A compound is considered active if at 30 mg/kg i.v. it antagonized at least 50% of the response.

[1] = AII 0.05 mcg/kg, 30 min post dose
[2] = AII 0.05 mcg/kg, 30 min post dose, listed as Ex. 21, potassium salt
[3] = AII 0.05 mcg/kg, 60 min post dose, listed as Ex. 21, potassium salt
[4] = AII 0.05 mcg/kg, 90 min post dose, listed as Ex. 21, potassium salt
[5] = AII 0.05 mcg/kg, 120 min post dose, listed as Ex. 21, potassium salt
[6] = AII 0.05 mcg/kg, 180 min post dose, listed as Ex. 21, potassium salt
[7] = AII 0.05 mcg/kg, 240 min post dose, listed as Ex. 21, potassium salt
[8] = AII 0.05 mcg/kg, 300 min post dose, listed as Ex. 21, potassium salt
[9] = AII 0.1 mcg/kg, 30 min post dose
[10] = AII 0.1 mcg/kg, 30 min post dose, listed as Ex. 21, potassium salt
[11] = AII 0.1 mcg/kg, 60 min post dose, listed as Ex. 21, potassium salt
[12] = AII 0.1 mcg/kg, 90 min post dose, listed as Ex. 21, potassium salt
[13] = AII 0.1 mcg/kg, 120 min post dose, listed as Ex. 21, potassium salt
[14] = AII 0.1 mcg/kg, 180 min post dose, listed as Ex. 21, potassium salt
[15] = AII 0.1 mcg/kg, 240 min post dose, listed as Ex. 21, potassium salt
[16] = AII 0.1 mcg/kg, 300 min post dose, listed as Ex. 21, potassium salt

## CCCCc1nc2ccnn2c(=O)n1Cc1ccc(-c2ccccc2-c2nn[nH]n2)cc1 [Example 21, 2-Butyl-3-[[2'-(1H-tetrazol-5-yl)-[[1,1'-biphenyl]-4-yl]methyl]-pyrazolo[1,5-a]-1,3,5-triazin-4(3H)-one potassium salt]
[1]
  Response After AII: 220
  % Inhibition: 65%
  Average Change: 15
[2]
  Change: 5 and 25
  Response After AII: 225
  Control Before AII: 215 and 200
[3]
  Change: 25 and 40
  Response After AII: 235 and 250
  Control Before AII: 210
  % Inhibition: 24%
  Average Change: 32.5
[4]
  Change: 20
  Response After AII: 230 and 260
  Control Before AII: 210 and 240
  % Inhibition: 53%
  Average Change: 20
AII 0.05 mcg/kg, 120 min post dose
  Control Before AII: 220
[5]
  Change: 20 and 30
  Response After AII: 240 and 255
  Control Before AII: 225
  % Inhibition: 41%
  Average Change: 25
[6]
  Change: 21 and 45
  Response After AII: 245 and 255
  Control Before AII: 224 and 210
  % Inhibition: 22%
  Average Change: 33
[7]
  Change: 25 and 35
  Response After AII: 245 and 250
  Control Before AII: 220 and 215
  % Inhibition: 29%
  Average Change: 30
[8]
  Change: 31 and 40
  Response After AII: 245 and 250
  Control Before AII: 214 and 210
  % Inhibition: 16%
  Average Change: 35.5
[9]
  Response After AII: 230
  % Inhibition: 58%
  Average Change: 22.5
[10]
  Change: 15 and 30
  Response After AII: 225
  Control Before AII: 210 and 200
[11]
  Change: 20 and 30
  Response After AII: 245 and 255
  Control Before AII: 225
  % Inhibition: 53%
  Average Change: 25
[12]
  Change: 30 and 35
  Response After AII: 245 and 260
  Control Before AII: 215 and 225
  % Inhibition: 39%
  Average Change: 32.5
[13]
  Change: 35 and 40
  Response After AII: 255 and 265
  Control Before AII: 220 and 225
  % Inhibition: 30%
  Average Change: 37.5
AII 0.1 mcg/kg, 180 min post dose
  Control Before AII: 240
[14]
  Change: 30 and 35
  Response After AII: 255 and 275
  Control Before AII: 225
  % Inhibition: 39%
  Average Change: 32.5
[15]
  Change: 40
  Response After AII: 265 and 260
  Control Before AII: 225 and 220
  % Inhibition: 25%
  Average Change: 40
[16]
  Change: 50 and 60
  Response After AII: 265 and 280
  Control Before AII: 215 and 220
  % Inhibition: -3%
  Average Change: 55
